Patent US20130289070A1, “Use of Levocabastine for Modulating Generation of Pro-Inflammatory Cytokines” (Bausch & Lomb Incorporated, priority 2007, published 2013)

Test system: EoL-1 (human eosinophilic leukaemia cell line) cells
Test: TNF-α-induced cytokine release, differentiated and non-differentiated EoL-1 cells
Format: cell-based
Procedure: EoL-1 (human eosinophilic leukaemia cell line) cells (Saito et al., 1985; Mayumi, 1992) were maintained in RPMI-1640 medium with L-glutamine supplemented with 10% (v/v) FBS at 37° C. in a humidified atmosphere with 5% CO2. Where indicated, 24 h before the experiment 25 ng/mL PMA ((phorbol 12-myristate 13-acetate, purchased from Sigma Aldrich) was added to the medium to induce eosinophil granulation and differentiation (Ohtsu et al., 1993; Zimmermann et al., 2000). Half-million cells were aliquoted per point in a 24 well plate; each experiment was performed in triplicate and carried out in parallel with eosinophils differentiated and non differentiated with PMA (25 ng/mL, 24 h). Cells were suspended in low serum medium (RPMI-1640, 0.1% (v/v) FBS). TNF-α was used to induce cytokine secretion as previously described by Steube et al. (2000), and the net release was obtained by comparison to the basal (non-TNF-α treated). In the first experiment we evaluated the concentration and time relation between TNF-α stimulation and cytokine release. […] An aliquot of 150 μL of supernate was collected for cytokines' analysis. […] Differentiated and non-differentiated EoL-1 cells were exposed from 0.1 to 2.3 mM levocabastine ([…]Levocabastine 0.05% solution eye drops containing cyclodextrins, without benzalkonium chloride), and aliquots of the supernates were collected after 12 and 24 h. The content of cytokines at time zero was estimated by treating the cells with 400 nM calcimycin (A-23187), which is a cytolytic agent that frees all the mediators from the cytoplasmic compartment. In addition, for each experiment we tested the effect of the vehicle, which was added to the wells in a concentration equal to the maximum amount used for drug dilution. Samples (supernates 12 and 24 h) in triplicate were analyzed using Luminex 200™ (Luminex, Austin, Tex.) and Beadview software v1.0 (Upstate Cell Signaling Solutions, Temecula, Calif.). All data are presented as mean±SEM for the indicated number of experiments. Statistical significance was determined by Newman-Keuls test after ANOVA using GraphPad Prism (version 3.0; GraphPad Software Inc., San Diego, Calif., USA).

[1] = TNF-α challenge, text summary of Tables T-1, T-2
[2] = overall conclusion, in a concentration-dependent manner
[3] = overall conclusion, in a concentration-dependent way

C[C@@H]1CN([C@H]2CC[C@](C#N)(c3ccc(F)cc3)CC2)CC[C@]1(C(=O)O)c1ccccc1 [Levocabastine, levocabastine]
release of IL-12p40 induced by TNF-α (2 mM, TNF-α 10 ng, 24 h, without PMA or differentiated with it, not influenced by VCAM-1 or fibronectin (FIG. 10)): effective in reducing the release
release of VEGF induced by TNF-α (2 mM, TNF-α 10 ng, 24 h, without PMA or differentiated with it, not influenced by VCAM-1 or fibronectin (FIG. 14)): effective in reducing the release
release of IL-12 P40 induced by TNF-α (2 mM, TNF-α 5, 10 and 20 ng, 12 h, without PMA or differentiated with it (FIG. 5)): capable of reducing the release
release of VEGF induced by TNF-α (2 mM, TNF-α 5, 10 and 20 ng, 24 h, without PMA or differentiated with it (FIG. 6)): capable of reducing the release
release of VEGF induced by TNF-α (2 mM, TNF-α 5, 10 and 20 ng, 24 h, without PMA or differentiated with it (FIG. 8)): capable of reducing the release
release of IP-10 induced by TNF-α (0.1, 0.5 and 1.0 mM, 12 h, without PMA or differentiated with it (FIG. 1)): capable to prevent the release
release of VEGF induced by TNF-α (0.1, 0.5 and 1.0 mM, 24 h, without PMA or differentiated with it (FIG. 4)): capable to prevent the release
VEGF release (FIG. 14) (PMA differentiated and indifferentiated EoL-1 cells, after TNF-α challenge): able to reduce
release of IL-1β [1]: significantly reduce
release of IP-10 [1]: significantly reduce
TNF-α-induced release of IL-8 (overall conclusion): statistical significant reduction
TNF-α-induced release of IL-12p40 (overall conclusion): statistical significant reduction
TNF-α-induced release of VEGF (overall conclusion): statistical significant reduction
cytokine release, general effect (overall conclusion, following TNF-α stimulation): concentration-related reduction
release of IL1-ra [2]: significantly reduced
release of IL-1β [2]: significantly reduced
release of IP-10 [2]: significantly reduced
secretion of MIP-1α [3]: increasing the secretion
secretion of RANTES [3]: increasing the secretion
